Measurements taken from publication PMC8009417, “Selective killing of homologous recombination-deficient cancer cell lines by inhibitors of the RPA:RAD52 protein-protein interaction” (PLoS ONE, 2021).
“And” between values parts separate entries of the source, which are not always exact repeats. Equal entries are not always repeated.

How the values were obtained:
[1] = target: T1, RPA:RAD52 protein-protein interaction (Homo sapiens, UniProt P43351); assay: FluorIA (Fluorescence-based protein-protein Interaction Assay), GFP-RAD52 binding to plate-coated RPA; conditions: polynomial curve fitting; 15 dose concentrations 0.03–500 μM, triplicate; RAD52(1–303) positive control; read-out: EC50 in FluorIA (inhibition of RPA:RAD52 PPI)
T1 construct: made in house
T1 sequence (P43351 1-418): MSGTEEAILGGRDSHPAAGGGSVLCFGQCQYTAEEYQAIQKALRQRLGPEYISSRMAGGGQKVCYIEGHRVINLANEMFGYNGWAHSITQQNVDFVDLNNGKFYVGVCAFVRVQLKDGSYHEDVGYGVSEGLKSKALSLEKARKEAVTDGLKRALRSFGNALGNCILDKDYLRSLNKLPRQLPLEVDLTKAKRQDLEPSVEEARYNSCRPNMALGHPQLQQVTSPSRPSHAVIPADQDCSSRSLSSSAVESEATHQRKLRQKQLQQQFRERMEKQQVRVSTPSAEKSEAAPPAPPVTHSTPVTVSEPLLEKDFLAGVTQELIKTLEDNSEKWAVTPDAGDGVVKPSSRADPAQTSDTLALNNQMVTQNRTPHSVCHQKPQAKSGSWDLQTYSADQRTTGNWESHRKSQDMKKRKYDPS
Protocol: A newly developed fluorescence-based assay for detecting protein-protein interactions, FluorIA was used to identify SMIs of RPA:RAD52 PPI. The detailed FluorIA protocol is published elsewhere. Briefly, 384-well plates (Thermo Fisher Scientific, #460518) were coated with purified RPA. Then compounds or controls were added and incubated with freshly prepared GFP-RAD52. RAD52(1–303) without GFP-tag and buffer (including DMSO) only were used as controls. Then the relative fluorescence (RFU) was measured using a POLARstar OPTIMA plate reader (BMG LABTECH) on emptied plates at an excitation/emission (for eGFP) of 485/520 nm at 2500 gain setting.
Three chemical libraries the 355-member SelleckChem Kinase Inhibitor Library, the 1200-member Prestwick Chemical Library, and the 100,000-member ChemBridge library were used for the screening. The screening of the SelleckChem Kinase Inhibitor and the Prestwick libraries were performed at 10 and 100 μM each in duplicate. The screening of the ChemBridge library was conducted at 100 μM. […] The statistical criteria for a hit were fully described in Al-Mugotir et al.. Each hit was verified in triplicate at 10 and 100 μM.
The in vitro EC50 value of each hit was determined with FluorIA. The chemicals were serially diluted by two-fold increments from 0.030 to 500 μM and analyzed in triplicate with FluorIA. RAD52(1–303) was used as a positive control and buffer with DMSO was used as a negative control. Candidate SMIs with strong inhibition were purchased, and a 1D NMR analysis was carried out to verify their identities. The eleven candidates SMIs were purchased as follows: 5137134, 5246481, 52614577,5316833, 5373030, and 7623574 from Chembridge HIT2LEAD, 5989499 from Wuxi lab network, 5375405 from Aronis, quinacrine and mitoxantrone from Sigma Aldrich, and doxorubicin from LC labs. D-I03 was purchased from Molport. Their effectiveness in inhibiting the RPA:RAD52 PPI was confirmed after purchase with the FluorIA as described above (S1 Fig).
Supplementary file pone.0248941.s001.tif: S1 Fig Validation experiments of eleven hits with the FlourIA. Sixteen treatment concentrations were used (0.030–500 μM) increasing by two-fold increments of each molecule/drug obtained as a hit in HTS FluorIA. RAD52(1–303) without GFP-tag and buffer (including DMSO) only were used as controls. Percent inhibition was calculated as follows: [(RFUSMI—RFURAD52(1–303)) / (RFUDMSO—RFURAD52(1–303))]*100, where RFU is relative fluorescence unit. An average of triplicate measurements was used. The treatment points for quinacrine and doxorubicin beyond 125 μM were showing characteristics of aggregation and were not used. (TIF) Click here for additional data file.

[2] = test system: HCC1937 cells corrected with wild-type BRCA1 gene (BRCA1+); assay: Cell viability assay (PrestoBlue, 72 h), HCC1937+BRCA1; assay type: cell-based; conditions: Homo sapiens, estimated from the graphs
Protocol: (§1) Fig 2 BRCA1-deficient HCC1937 breast cancer cell line survival assay. BRCA1-deficient HCC1937 cells corrected with wild-type BRCA1 gene (BRCA1+; closed triangle), and with an empty vector (BRCA1-; closed circle) were examined. For each experiment (Figs 2–4), cell lines were treated with nine concentrations of (A) quinacrine, (B) mitoxantrone, and (C) doxorubicin in 96-well culture plates at 5x10^3 cell/well density. Each treatment point was made in sextuplicate. Treated cells were incubated for 72 hours at 37°C before assessing cell viability using PrestoBlue. Data were normalized to vehicle control. The experiment was repeated three times. Error bars indicate the standard deviation.
(§2) The HCC1937 cell line (a gift from Dr. Simon Powell Memorial Sloan Kettering (MSK), New York) was derived from a mammary gland primary ductal carcinoma at the early onset of a tumor. This TNBC patient carried a germline mutation in BRCA1, resulting in carboxy-terminal truncated protein and loss of the second BRCA1 allele. BRCA1-restored and empty vector cell lines were also obtained by transfection of a vector containing a full-length human BRCA1 cDNA or an empty vector, respectively. The HCC1937 cell lines were cultured as described.
(§3) Cells were seeded 5 x 10^3 cells per well in 96-well plates in a 90 μL volume per well one day before treatment. Cells in 96-well plates were incubated with increasing concentrations of the compound or vehicle control (1% DMSO) for 72 hours. Each treatment plate contained nine concentrations of a compound in sextuplicate. Growth inhibition was determined using PrestoBlue reagent (Life Technologies, #A13261). Fluorescent measurements were taken using a Spectramax M5 plate reader (MDS). To assess cells’ replication in the absence of compounds as a control, six wells on each plate were treated with vehicle to be read in triplicate at the initial treatment day (T0) and at 72-hour read (T100).

[3] = test system: BRCA1-deficient UWB1.289 ovarian cancer cells (BRCA1-); assay: Cell viability assay (PrestoBlue, 72 h), UWB1.289; assay type: cell-based; conditions: Homo sapiens, UWB1289, estimated from the graphs
Description: (§4) BRCA1-deficient UWB1.289 cells corrected with wild-type BRCA1 gene (BRCA1+; closed triangle) and parental BRCA1-deficient UWB1.289 (BRCA1-; closed circle). Two PARPi-resistant cell lines derived from UWB1.289, UWB1.289.SYr12 (closed diamond) and UWB1.SYr13 (X), were also examined.
(§5) UWB1.289 (a gift from Dr. Lee Zou, Harvard Medical School, Boston, MA) were derived from a serous ovarian carcinoma with a germline BRCA1 mutation and a deletion of the wild-type allele. […] Two PARP-resistant cell lines, SYr12 and SYr13, were derived from the UWB1.289. The Mammary Epithelial growth media, along with SupplementMix solution for UWB1 cell lines, were obtained from PromoCell GmbH and mixed as described.
as §3

[4] = test system: UWB1.289 cells corrected with wild-type BRCA1 gene (BRCA1+); assay: Cell viability assay (PrestoBlue, 72 h), UWB1.289+BRCA1; assay type: cell-based; conditions: Homo sapiens, UWB1289, estimated from the graphs
Description: as §4, §5, §3

[5] = test system: BRCA2-deficient PE01 ovarian cancer cells (BRCA2-); assay: Cell viability assay (PrestoBlue, 72 h), PE01; assay type: cell-based; conditions: Homo sapiens, estimated from the graphs
Protocol: BRCA2-deficient PE01 cell line (a gift from Dr. Toshiyasu Taniguchi, Tokai University, Japan) were derived from an ovarian cancer patient. BRCA2-proficient “revertant” cell line, C4-2 is one of eight clones derived from PE01 that has acquired resistance to both cisplatin and PARPi due to a secondary mutation that restored the BRCA2 function. PE01 and PE01 C4-2 were grown and maintained in DMEM high glucose (Hyclone) supplemented with 10% Fetal Bovine Serum (FBS, Invitrogen).
as §3

[6] = test system: PARPi-resistant UWB1.SYr13 cells; assay: Cell viability assay (PrestoBlue, 72 h), UWB1.SYr13; assay type: cell-based; conditions: Homo sapiens, estimated from the graphs
Description: as §4, §5, §3

[7] = test system: PARPi-resistant UWB1.289.SYr12 cells; assay: Cell viability assay (PrestoBlue, 72 h), UWB1.289.SYr12; assay type: cell-based; conditions: Homo sapiens, estimated from the graphs
Description: as §4, §5, §3

[8] = test system: BRCA1-deficient HCC1937 breast cancer cells (empty vector, BRCA1-); assay: Cell viability assay (PrestoBlue, 72 h), HCC1937 with empty vector; assay type: cell-based; conditions: Homo sapiens, estimated from the graphs
Protocol: as §1, §2, §3

[9] = test system: BRCA2-revertant PE01 C4-2 cells (BRCA2+); assay: Cell viability assay (PrestoBlue, 72 h), PE01 C4-2; conditions: Homo sapiens, C4-2, 72 h, read-out: EC50, cell viability
[10] = target: RAD52 ssDNA binding domain; design: method as in PMID 26548611; conditions: read-out: IC50, allosteric inhibitor of the RAD52 ssDNA binding domain; cited from earlier work
[11] = target: RPA, endogenous in U2OS cells (human (endogenous in U2OS)) (UniProt P15927)
RPA, endogenous in U2OS cells (human (endogenous in U2OS)), sequence (P15927 whole entry, looked up): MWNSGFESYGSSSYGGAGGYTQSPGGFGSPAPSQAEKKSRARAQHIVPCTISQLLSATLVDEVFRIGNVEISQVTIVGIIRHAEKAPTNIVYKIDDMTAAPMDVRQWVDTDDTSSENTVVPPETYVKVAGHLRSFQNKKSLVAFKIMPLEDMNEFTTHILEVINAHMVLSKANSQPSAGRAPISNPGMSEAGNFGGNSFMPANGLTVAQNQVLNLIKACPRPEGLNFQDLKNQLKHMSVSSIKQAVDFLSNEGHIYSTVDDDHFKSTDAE

Row | Compound | EC50 [1] | EC50 [2] [µM] | EC50 [3] [µM] | EC50 [4] [µM] | EC50 [5] [µM] | EC50 [6] [µM] | EC50 [7] [µM] | EC50 [8] [µM] | EC50 [9] [µM] | other results
1 | NC(Cc1cc(O)c(O)cc1O)C(=O)O (racemic) [6-hydroxy-DL-dopa] |  |  |  |  |  |  |  |  |  | IC50 [10]: 1.1 µM
2 | COc1cccc2c1C(=O)c1c(O)c3c(c(O)c1C2=O)C[C@@](O)(C(=O)CO)C[C@@H]3O[C@H]1C[C@H](N)[C@H](O)[C@H](C)O1 [Doxorubicin, doxorubicin] | 10.1 µM | 1.5 | 0.3 | 2.5 | 0.05 | 2.5 | 0.8 | 0.3 | 0.7 | 
3 | RAD52, endogenous in U2OS cells (from UniProt P43351 1-418) (natural protein) |  |  |  |  |  |  |  |  |  | inhibition of single-strand annealing (SA-GFP reporter in U2OS-SA cells, FACS) by mitoxantrone, an inhibitor of the RPA:RAD52 interaction, at 4 nM [11]: 72%

More lines, main results first:

Row | EC50 [1] | Compound | EC50 [2] [µM] | EC50 [3] [µM] | EC50 [4] [µM] | EC50 [5] [µM] | EC50 [6] [µM] | EC50 [7] [µM] | EC50 [8] [µM] | EC50 [9] [µM] | other results
4 | 66 µM and 66.2 µM | Cc1cc2nc3ccc(N(C)C)cc3nc2cc1N [compound 5316833] |  |  |  |  |  |  |  |  | 
5 | 97.7 µM | CCN(CC)CCCC(C)Nc1c2ccc(Cl)cc2nc2ccc(OC)cc12 (stereo not shown) [Quinacrine, quinacrine] | 4.6 | 5.4 | > 10 | 3.8 | > 10 | > 10 | 1.7 | 4.5 | 
6 | 105 µM | Nc1cc(S(=O)(=O)O)cc2cc(S(=O)(=O)O)cc(O)c12 [compound 5137134] |  |  |  |  |  |  |  |  | 
